The source of these data is patent publication US10648979B2, “Molecular probes for detecting gram-negative bacteria in vitro and in vivo” (priority 2014, dated 2020).

Each structure is given as a SMILES string. Bridge positions count the residues as written; N and C are the ends. Square brackets hold non-standard residues; d marks the D form. Peptide text beside a SMILES is read from it. * marks the point of attachment. ξ: configuration not given here. NBD = O=[N+]([O-])c1ccc(*)c2nonc12; dDab = NCC[C@@H](N)C(=O)O; Dab = NCC[C@H](N)C(=O)O; AEEA = NCCOCCOCC(=O)O; ξDab = NCCC(N)C(=O)O

Data set [1] deals with bacteria instilled into ovine lung segments. Put plainly: Ex vivo ovine lung model of bacterial infection, in situ labelling imaged by FCFM. As to the method: FIG. 9: Ex vivo model of bacterial infection. A) Ovine lungs were harvested, ventilated and placed in a neonatal incubator with ambient temperature of 37° C. Pulmonary segments were instilled with PBS (control) or bacteria via bronchoscopy. Probes were then instilled and segments imaged with fibered confocal fluorescence microscopy (FCFM) using 488 nm Laser Scanning Unit (LSU). […] Bacteria (MSSA) instilled into segments of ovine lung and lavaged at 1, 3 and 5 hours (n=3), plated for CFU/ml and counted following 16 hour incubation.
NBD-UBIdend and NBD-PMX were assessed for in situ specificity and sensitivity in an ex vivo ovine model of bacterial infection (FIG. 9). […] We observed identical patterns with Calcein-labelled bacteria and Green Fluorescent Protein-expressing S. aureus which were instilled into the lung and imaged with FCFM (FIG. 10A). This pattern is reproduced identically by instilling bacteria “pre-labelled” with NBD-UBIdend and NBD-PMX into lung segments.
Following this thorough characterisation of the model and positive controls, we instilled PBS or VAP-relevant bacteria into distinct segments within the ex vivo lung model, followed by the microdosed delivery of the probes.
(§1) All compounds have undergone biological assessment.
Bacteria were grown to midlog phase in 400 ml TSB, pelleted by centrifugation and resuspended in 2 ml PBS. This was mixed with 18 ml molten tryptic-soy agar (50° C.) and injected rapidly into vortexing mineral oil +0.01% Span 80, pre-warmed to 50° C. This was then rapidly cooled to 4° C. whilst continuing to vortex to allow the beads to set. Bacterial agar beads were pelleted by centrifugation (20 minutes, 3000 g) and washed in 0.5% sodium deoxycholate (SDC) in PBS (20 minutes, 3000 g), followed by 0.25% SDC (20 minutes, 3000 g) in PBS, washed in PBS (10 minutes, 3000 g) and 3×PBS (5 minutes, 200 g). Beads were resuspended at 50% v/v in PBS for instillation.
From a cohort of surplus stock ewes which were destined for cull, one ewe was identified and terminally euthanized with an overdose of anaesthetic. Death was confirmed and the trachea was identified and clamped in situ. The thoracic cavity was then accessed and the lungs were freed from surrounding tissues and organs and the heart/lung was removed en block. The right pulmonary artery was identified, cannulated and perfused with 1000 ml 0.9% NaCl. Once filling of the left ventricle was confirmed an incision was made to allow free drainage and perfusion continued until the drainage from the left atrium was clear. The lungs were then transferred to the Queen's Medical Research Institute and the trachea was intubated with an 8.0 endotracheal tube immediately following clamp release. […]

The conditions of data set [2]: water.
A further data set relates to human neutrophils. As to the kind of experiment: Labelling of isolated human neutrophils (confocal). The class given is cell-based. Here is the method:
as §1
Bacteria were prepared and counterstained with Syto 82 nucleic acid stain (Invitrogen, Calif., USA) in a shaking heat block at 37° C. and 350 rpm for 20 minutes. They were co-incubated with the probe at required concentration in a sealed POC mini chamber, or 8 well confocal chamber. When required the glass coverslip for the POC chamber was coated in fibronectin (for neutrophil experiments) or poly-d-lysine (for bacteria and cell lines) and incubated with cells with one hour at 37° C. to allow adherence prior to bacterial innoculation. Analysis was with ImageJ. Briefly, the Syto channel was automatically thresholded (Huang) and an ROI generated from this. The mean fluorescence intensity on the probe channel within this ROI was quantified. Data presented represents the mean of three separate fields of view.

Data set [3] deals with panel of bacteria (P. aeruginosa, A. baumannii, S. maltophilia, K. pneumoniae, E. coli, H. influenzae, MRSA, MSSA, S. pneumoniae). As to the kind of experiment: In vitro labelling of bacteria by laser scanning confocal microscopy. The class given is cell-based. As to the method:
In vitro labelling was assessed on benchtop confocal in the presence of compound with bacteria and labelling was compared to NBD-UBINle which served as a reference control for bacterial labelling. […] For the ex vivo and in vivo ovine lung experiments each compound was assessed in a control lung segment (instilled with 2 ml PBS) or a bacterial segment (instilled with 2 ml of 2 optical density of bacteria). Following bacterial instillation, the compound was administered to the segment of interest and this was imaged by probe based confocal laser endomicroscopy (FCFM).

`CC(C)C[C@@H]1NC(=O)[C@@H](Cc2ccccc2)NC(=O)[C@@H](CCN)NC(=O)C(NC(=O)[C@H](CCN)NC(=O)[C@@H](NC(=O)COCCOCCNc2ccc([N+](=O)[O-])c3nonc23)[C@@H](C)O)CCNC(=O)[C@@H]([C@H](C)O)NC(=O)[C@H](CCN)NC(=O)[C@H](CCN)NC1=O` (stereo partly drawn) [NBD-PMX] ({NBD-AEEA}-T[Dab][ξDab][dDab][dF]L[Dab][Dab][dT]; lactam 3-C): in data set [1] (FCFM), the “detection of bacteria-coated agarose beads in situ” value was “when beads are coated with bacteria a signal is seen” and the “in situ labelling of bacteria in segments instilled with bacteria” value was “demonstrated labelling”. The “signal in segments with PBS or gram-positive bacteria” value in data set [1] (MSSA, MRSA, S. pneumoniae) is on record as “no signal in segments with PBS or gram-positive bacteria”. Also, in data set [1] (P. aeruginosa (PA01, J3284), K. pneumoniae, E. coli), the “signal in segments instilled with gram-negative bacteria” value was “the same signal as in the ‘positive controls’”. The Solubility result in data set [2] was “Fully soluble in water”. In the data set with human neutrophils, the “labelling of human neutrophils” value is given as “no labelling of human neutrophils or A549 cells”. Besides, the “labelling of Gram-positive bacteria” value in data set [3] (1 μM) is given as “minimal/no labelling”. The “fluorescence on Gram-negative versus Gram-positive bacteria” value in data set [3] (1 μM, p<0.05) was “significantly higher fluorescence on Gram-negative bacteria”. Further, the bacterial labelling entry in data set [3] (Pseudomonas aeruginosa (PA) incubated with A549 cells) is given as “allows bacterial labelling”.
